Measurements as given in ChEMBL document CHEMBL1201862, “PubChem BioAssay data set” (2004).
Active and inactive are the calls of the source.

Legend:
Procathepsin L = Procathepsin L (Homo sapiens, UniProt P07711)
Aspartyl aminopeptidase = Aspartyl aminopeptidase (Plasmodium falciparum 3D7, UniProt Q8I2J3)
INS1 = test: beta cell apoptosis inhibitors, cytokine rescue, dose response, luminescence, retest (AID 449756); type: functional, cell-based; settings: Rattus norvegicus;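 note: cell death triggered by IL-1 beta plus TNF-alpha plus IFN-gamma mixture; protective hits raise ATP signal compared with cytokine alone wells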
X-box-binding protein 1 = X-box-binding protein 1 (Homo sapiens, UniProt P17861); type: functional, Cricetulus griseus;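 note: confirmatory dose-response counter-screen serving a CHOP assay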
[1] = growth suppression of PTEN-null colon cells, dose response, cell-based, HCT116 PTEN knockout (AID 1047); type: functional;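 note: HCT116 colon tumor cells with PTEN knocked out; cells exposed to compound for 60 hours before readout; potency for loss of cell viability measured by luminescence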
[2] = HEp-2 cell cytotoxicity, dose response, cytotoxicity control for RSV inhibitor project, HTS (AID 2410); type: functional; settings: human respiratory syncytial virus
[3] = growth suppression of beta-catenin-knockout colon cells, dose response, cell-based, HCT116, human colon tumor (AID 1045); type: functional;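 note: HCT116 colon tumor cells with beta catenin knocked out; cells exposed to compound for 60 hours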
cells [4] = type: functional
[5] = target: Acyl-homoserine lactone acylase PvdQ (Pseudomonas aeruginosa (strain LESB58), UniProt Q9I194); test: P. aeruginosa PvdQ acylase inhibitors, dose response, biochemical, fluorescence, plate reader and imaging, cherry-picks (AID 493231)
Estrogen receptor = target: T1, Estrogen receptor (Homo sapiens, UniProt P03372);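 note: potency for inhibiting coactivator peptide recruitment to the receptor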
T1 sequence (P03372 whole entry): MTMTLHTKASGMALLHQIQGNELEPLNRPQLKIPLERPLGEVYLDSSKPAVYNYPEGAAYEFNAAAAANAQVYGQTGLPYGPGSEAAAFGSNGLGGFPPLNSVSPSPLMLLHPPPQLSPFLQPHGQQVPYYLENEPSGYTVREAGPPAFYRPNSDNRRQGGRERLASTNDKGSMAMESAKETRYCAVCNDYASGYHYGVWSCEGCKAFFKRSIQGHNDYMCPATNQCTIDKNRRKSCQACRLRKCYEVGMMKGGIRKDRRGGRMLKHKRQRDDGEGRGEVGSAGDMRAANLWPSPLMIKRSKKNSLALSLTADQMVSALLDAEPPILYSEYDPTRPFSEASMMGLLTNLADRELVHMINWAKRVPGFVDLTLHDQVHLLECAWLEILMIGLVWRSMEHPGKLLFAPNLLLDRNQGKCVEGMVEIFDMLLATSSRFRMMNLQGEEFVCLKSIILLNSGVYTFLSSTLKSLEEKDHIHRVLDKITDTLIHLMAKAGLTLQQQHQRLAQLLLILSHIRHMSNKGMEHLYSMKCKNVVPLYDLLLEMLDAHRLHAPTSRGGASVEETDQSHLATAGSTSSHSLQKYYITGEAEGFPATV

[6] = inhibitors of Bluetongue virus cytopathic effect, confirmation, arbovirus, BSR cells (AID 1250); type: functional;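 note: protection from viral cytopathic effect measured as cell viability by ATP luminescence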
cells [7] = test: cells
[8] = target: Induced myeloid leukemia cell differentiation protein Mcl-1 (Homo sapiens, UniProt Q07820); type: functional
Estrogen receptor beta [9] = target: T2, Estrogen receptor beta (Homo sapiens, UniProt Q92731);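 note: recombinant ER-beta bound to coactivator SRC1 peptide in presence of estradiol agonist; inhibitors block coactivator peptide binding and lower the FRET signal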
[10] = THP-1 cell cytotoxicity, dose response, cytotoxicity control for Vif-APOBEC3G degradation inhibitor project, THP-1 cells (AID 1117359); type: functional; settings: Human immunodeficiency virus 1, THP-1
Estrogen receptor beta [11] = target: T2, Estrogen receptor beta; test: ERβ–SRC-3 coactivator interaction inhibitors, confirmation, orthogonal assay, biochemical, ELISA, streptavidin-HRP readout (AID 1060)
Ephrin type-A receptor 4 = Ephrin type-A receptor 4 (Mus musculus, UniProt Q03137); test: inhibitors of EphA4 binding to KYL peptide, primary screen, biochemical, colorimetric, mouse EphA4 (AID 689); type: functional
Protein Tat = Protein Tat (Human immunodeficiency virus type 1 group M subtype B (isolate HXB2)(HIV-1), UniProt P04608); type: functional;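 note: tat binding to TAR RNA read out by fluorescence polarization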
HEK293 = test: cells; settings: Homo sapiens;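 note: cells exposed to compound for 14 hours overnight before viability readout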
[12] = target: T3, Nucleotide-binding oligomerization domain-containing protein 1 (Homo sapiens, UniProt Q9Y239); test: NOD1 signaling inhibitors, SAR follow-up, revised (AID 2333); type: functional
T3 sequence (Q9Y239 whole entry): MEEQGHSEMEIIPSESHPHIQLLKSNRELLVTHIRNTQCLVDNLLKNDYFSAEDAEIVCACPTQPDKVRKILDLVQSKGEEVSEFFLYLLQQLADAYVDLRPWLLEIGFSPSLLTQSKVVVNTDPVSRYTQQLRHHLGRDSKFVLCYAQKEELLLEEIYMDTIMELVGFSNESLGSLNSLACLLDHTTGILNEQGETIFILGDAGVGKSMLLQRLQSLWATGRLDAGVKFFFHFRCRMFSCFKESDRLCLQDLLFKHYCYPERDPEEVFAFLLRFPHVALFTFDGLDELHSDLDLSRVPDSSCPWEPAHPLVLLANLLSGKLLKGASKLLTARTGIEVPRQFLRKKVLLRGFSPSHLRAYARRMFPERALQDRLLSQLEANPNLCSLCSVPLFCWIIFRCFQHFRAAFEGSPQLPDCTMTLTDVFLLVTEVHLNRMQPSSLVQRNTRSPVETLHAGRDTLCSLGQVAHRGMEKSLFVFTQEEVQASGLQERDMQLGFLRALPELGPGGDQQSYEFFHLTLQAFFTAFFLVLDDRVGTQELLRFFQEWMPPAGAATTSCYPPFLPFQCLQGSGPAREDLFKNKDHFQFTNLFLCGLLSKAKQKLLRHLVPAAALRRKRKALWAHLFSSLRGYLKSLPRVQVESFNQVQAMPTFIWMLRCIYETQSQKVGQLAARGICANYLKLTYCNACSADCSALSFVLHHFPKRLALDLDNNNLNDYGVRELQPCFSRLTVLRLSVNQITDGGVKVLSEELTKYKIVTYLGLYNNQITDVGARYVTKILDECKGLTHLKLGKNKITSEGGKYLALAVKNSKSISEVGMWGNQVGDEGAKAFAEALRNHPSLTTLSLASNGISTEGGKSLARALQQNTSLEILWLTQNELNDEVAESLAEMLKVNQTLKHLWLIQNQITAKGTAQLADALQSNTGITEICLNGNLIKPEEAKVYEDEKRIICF

[13] = target: Nucleotide-binding oligomerization domain-containing protein 2 (Homo sapiens, UniProt Q9HC29); test: PubChem AID 2334; type: functional
Tumor necrosis factor = Tumor necrosis factor (Homo sapiens, UniProt P01375); test: TNFa-triggered NF-kB activation inhibitors, SAR follow-up, cell-based, revised (AID 2337); type: functional
[14] = target: T4, Zinc finger protein mex-5 (Caenorhabditis elegans, UniProt Q9XUB2); test: MEX-5/TCR-2 RNA interaction inhibitors, dose response, biochemical, C. elegans, fluorescence polarization (AID 1960)
T4 sequence (Q9XUB2 whole entry): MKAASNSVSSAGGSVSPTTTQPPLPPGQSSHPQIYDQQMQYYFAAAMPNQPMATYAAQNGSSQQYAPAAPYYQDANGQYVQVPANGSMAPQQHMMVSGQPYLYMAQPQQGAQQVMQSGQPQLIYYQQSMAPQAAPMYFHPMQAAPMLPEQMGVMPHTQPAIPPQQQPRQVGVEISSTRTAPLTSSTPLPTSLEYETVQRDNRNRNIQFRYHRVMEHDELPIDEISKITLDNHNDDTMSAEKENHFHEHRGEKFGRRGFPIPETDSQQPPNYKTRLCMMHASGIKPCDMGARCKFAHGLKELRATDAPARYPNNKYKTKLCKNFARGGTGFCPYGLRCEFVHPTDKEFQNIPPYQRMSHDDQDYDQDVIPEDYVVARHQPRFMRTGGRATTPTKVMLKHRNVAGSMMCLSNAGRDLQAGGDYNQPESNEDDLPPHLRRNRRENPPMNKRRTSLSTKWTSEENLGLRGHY

[15] = target: T5, Tyrosine-protein phosphatase non-receptor type 7 (Homo sapiens, UniProt P35236); test: redox-dependent HePTP inhibition, mechanism study, biochemical, fluorescence (AID 2068); type: functional
T5 sequence (P35236 whole entry): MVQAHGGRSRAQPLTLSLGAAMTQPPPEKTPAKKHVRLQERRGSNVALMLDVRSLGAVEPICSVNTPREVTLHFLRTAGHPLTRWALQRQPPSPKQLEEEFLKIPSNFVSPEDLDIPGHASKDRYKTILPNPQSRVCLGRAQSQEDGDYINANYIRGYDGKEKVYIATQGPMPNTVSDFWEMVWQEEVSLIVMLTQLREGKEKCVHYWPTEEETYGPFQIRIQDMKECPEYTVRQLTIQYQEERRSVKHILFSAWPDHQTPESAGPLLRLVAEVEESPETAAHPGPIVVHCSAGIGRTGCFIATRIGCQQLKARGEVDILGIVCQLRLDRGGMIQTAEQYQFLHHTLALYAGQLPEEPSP

Coagulation factor XII = target: T6, Coagulation factor XII (Homo sapiens, UniProt P00748); type: functional;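 note: activated factor XIIa alpha cleaving a fluorogenic AMC peptide substrate; inhibitor potency from loss of enzyme activity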
T6 sequence (P00748 whole entry): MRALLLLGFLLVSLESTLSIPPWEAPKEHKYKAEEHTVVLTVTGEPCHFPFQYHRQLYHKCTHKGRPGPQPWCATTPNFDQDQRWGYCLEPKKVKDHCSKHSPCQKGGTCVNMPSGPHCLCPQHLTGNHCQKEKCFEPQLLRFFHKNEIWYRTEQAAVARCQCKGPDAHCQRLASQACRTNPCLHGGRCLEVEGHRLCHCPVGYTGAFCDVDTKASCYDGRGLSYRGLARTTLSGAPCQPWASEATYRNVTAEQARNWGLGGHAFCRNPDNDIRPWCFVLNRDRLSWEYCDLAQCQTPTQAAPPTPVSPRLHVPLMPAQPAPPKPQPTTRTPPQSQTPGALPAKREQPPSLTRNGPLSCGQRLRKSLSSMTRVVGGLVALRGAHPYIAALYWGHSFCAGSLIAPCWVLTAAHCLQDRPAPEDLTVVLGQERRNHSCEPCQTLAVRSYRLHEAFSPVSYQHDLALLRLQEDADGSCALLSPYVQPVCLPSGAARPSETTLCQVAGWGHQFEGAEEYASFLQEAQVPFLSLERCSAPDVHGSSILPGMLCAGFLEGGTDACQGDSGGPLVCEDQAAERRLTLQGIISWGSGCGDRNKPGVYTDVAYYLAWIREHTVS

Genome polyprotein = Genome polyprotein (dengue virus type 2, UniProt P29990); test: Dengue-2 NS5 methyltransferase inhibitors, primary screen, biochemical, confirmation dose response (AID 588689); type: functional
[16] = target: T7, RNA-binding protein pos-1 (Caenorhabditis elegans, UniProt G5EF15); test: inhibitors of POS-1/mex-3 RNA binding, dose response, biochemical, fluorescence polarization (AID 1964);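 note: purified POS-1 fused to maltose binding protein made in E. coli; potency of compounds blocking POS-1 binding to fluorescent RNA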
T7 sequence (G5EF15 whole entry): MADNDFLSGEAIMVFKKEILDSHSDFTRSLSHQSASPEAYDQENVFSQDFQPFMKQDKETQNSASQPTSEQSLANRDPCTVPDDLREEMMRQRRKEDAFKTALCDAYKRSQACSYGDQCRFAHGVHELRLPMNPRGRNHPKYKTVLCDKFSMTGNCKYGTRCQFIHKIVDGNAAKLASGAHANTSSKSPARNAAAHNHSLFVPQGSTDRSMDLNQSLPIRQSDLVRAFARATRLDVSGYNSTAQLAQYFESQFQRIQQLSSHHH

Chain of Tumor necrosis factor (P01375 whole entry): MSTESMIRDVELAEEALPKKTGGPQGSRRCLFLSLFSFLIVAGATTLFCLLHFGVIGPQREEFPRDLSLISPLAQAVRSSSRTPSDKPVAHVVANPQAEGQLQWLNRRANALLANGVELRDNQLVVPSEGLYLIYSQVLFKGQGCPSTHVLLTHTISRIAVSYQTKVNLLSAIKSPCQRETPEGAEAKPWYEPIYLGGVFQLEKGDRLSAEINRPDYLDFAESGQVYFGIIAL
T2 sequence (Q92731 whole entry): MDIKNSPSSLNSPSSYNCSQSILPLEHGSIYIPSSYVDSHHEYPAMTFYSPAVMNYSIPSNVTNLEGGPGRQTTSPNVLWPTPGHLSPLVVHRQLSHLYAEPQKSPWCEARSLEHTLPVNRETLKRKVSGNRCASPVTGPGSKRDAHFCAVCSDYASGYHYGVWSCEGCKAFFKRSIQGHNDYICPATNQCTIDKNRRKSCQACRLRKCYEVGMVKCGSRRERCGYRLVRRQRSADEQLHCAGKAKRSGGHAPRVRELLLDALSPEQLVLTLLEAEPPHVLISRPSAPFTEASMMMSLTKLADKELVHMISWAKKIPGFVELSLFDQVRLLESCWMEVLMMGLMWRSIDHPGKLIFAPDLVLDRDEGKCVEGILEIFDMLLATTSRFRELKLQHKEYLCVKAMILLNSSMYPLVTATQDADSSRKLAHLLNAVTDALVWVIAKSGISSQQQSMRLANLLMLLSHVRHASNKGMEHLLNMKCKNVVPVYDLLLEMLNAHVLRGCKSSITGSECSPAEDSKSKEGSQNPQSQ
Chain of Nucleotide-binding oligomerization domain-containing protein 2 (Q9HC29 whole entry, the tested form may be a part): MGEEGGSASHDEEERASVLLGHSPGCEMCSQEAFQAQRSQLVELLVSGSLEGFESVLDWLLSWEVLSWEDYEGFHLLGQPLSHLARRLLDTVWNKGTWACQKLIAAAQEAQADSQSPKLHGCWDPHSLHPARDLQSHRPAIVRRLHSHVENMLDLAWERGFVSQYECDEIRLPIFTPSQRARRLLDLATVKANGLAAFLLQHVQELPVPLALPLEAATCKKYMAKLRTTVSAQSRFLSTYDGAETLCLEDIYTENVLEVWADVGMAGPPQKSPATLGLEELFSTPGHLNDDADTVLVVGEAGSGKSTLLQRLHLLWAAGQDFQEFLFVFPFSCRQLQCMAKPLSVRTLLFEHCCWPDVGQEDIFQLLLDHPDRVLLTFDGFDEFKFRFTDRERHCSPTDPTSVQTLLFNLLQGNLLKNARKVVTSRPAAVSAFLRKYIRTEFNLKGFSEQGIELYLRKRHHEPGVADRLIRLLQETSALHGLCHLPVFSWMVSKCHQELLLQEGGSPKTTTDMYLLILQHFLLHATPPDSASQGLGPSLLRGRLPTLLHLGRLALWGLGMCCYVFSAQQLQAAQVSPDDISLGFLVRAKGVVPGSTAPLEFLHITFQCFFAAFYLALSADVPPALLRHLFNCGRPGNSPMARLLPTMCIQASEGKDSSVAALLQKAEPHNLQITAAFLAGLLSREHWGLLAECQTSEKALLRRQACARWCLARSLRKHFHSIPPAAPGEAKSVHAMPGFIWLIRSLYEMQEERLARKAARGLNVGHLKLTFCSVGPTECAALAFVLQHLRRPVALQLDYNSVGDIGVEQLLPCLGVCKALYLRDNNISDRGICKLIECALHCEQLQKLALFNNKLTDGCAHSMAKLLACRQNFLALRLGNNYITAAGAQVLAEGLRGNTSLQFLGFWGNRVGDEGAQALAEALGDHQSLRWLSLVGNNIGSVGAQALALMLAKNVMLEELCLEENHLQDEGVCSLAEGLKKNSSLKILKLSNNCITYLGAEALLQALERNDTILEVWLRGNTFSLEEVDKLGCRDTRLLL
Chain of Induced myeloid leukemia cell differentiation protein Mcl-1 (Q07820 whole entry): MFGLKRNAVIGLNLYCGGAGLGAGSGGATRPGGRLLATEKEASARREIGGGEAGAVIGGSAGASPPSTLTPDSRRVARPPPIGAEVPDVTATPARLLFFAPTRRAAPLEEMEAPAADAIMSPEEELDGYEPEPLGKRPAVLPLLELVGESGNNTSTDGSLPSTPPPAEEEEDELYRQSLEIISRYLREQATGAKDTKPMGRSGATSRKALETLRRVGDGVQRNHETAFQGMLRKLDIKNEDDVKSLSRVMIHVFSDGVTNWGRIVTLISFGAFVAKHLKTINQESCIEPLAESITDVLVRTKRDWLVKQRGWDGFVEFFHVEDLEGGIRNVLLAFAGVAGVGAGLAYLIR
Chain of Procathepsin L (P07711 whole entry): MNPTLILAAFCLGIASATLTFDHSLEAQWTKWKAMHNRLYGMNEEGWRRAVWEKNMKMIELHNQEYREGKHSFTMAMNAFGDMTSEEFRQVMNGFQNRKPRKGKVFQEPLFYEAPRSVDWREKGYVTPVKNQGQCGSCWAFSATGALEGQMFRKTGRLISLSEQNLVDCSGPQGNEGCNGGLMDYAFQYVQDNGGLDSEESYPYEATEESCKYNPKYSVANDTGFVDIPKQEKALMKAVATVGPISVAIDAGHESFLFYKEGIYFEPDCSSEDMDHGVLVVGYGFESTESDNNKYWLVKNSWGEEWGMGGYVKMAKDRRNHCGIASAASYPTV
Chain of Aspartyl aminopeptidase (Q8I2J3 whole entry): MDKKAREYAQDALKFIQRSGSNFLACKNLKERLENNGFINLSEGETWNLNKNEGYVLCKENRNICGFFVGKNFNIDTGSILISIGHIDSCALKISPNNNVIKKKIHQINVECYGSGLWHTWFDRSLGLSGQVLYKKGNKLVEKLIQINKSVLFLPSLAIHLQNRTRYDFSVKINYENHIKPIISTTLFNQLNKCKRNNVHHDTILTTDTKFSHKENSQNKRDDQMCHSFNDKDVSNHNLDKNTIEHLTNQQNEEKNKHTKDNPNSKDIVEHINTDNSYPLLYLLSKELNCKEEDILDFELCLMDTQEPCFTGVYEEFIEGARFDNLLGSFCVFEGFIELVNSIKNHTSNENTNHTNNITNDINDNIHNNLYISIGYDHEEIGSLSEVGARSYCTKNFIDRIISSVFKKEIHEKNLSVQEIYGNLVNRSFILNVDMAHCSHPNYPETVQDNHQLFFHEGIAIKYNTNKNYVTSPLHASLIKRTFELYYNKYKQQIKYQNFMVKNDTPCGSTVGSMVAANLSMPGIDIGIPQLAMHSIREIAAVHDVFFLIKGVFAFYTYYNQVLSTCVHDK
Chain of X-box-binding protein 1 (P17861 whole entry): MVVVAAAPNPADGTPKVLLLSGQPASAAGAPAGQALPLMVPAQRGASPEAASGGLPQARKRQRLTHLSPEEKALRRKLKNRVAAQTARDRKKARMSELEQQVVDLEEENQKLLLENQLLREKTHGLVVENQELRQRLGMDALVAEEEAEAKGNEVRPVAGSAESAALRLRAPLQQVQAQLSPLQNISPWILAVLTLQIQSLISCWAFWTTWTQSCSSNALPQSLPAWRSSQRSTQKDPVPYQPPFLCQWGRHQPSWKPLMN
Chain of Acyl-homoserine lactone acylase PvdQ (Q9I194 24-193 limits assumed): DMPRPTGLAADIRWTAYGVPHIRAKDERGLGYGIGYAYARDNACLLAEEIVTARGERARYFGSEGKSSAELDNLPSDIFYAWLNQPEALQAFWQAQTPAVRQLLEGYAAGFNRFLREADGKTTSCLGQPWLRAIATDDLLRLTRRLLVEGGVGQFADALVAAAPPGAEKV
Chain of Acyl-homoserine lactone acylase PvdQ (Q9I194 217-762 limits assumed): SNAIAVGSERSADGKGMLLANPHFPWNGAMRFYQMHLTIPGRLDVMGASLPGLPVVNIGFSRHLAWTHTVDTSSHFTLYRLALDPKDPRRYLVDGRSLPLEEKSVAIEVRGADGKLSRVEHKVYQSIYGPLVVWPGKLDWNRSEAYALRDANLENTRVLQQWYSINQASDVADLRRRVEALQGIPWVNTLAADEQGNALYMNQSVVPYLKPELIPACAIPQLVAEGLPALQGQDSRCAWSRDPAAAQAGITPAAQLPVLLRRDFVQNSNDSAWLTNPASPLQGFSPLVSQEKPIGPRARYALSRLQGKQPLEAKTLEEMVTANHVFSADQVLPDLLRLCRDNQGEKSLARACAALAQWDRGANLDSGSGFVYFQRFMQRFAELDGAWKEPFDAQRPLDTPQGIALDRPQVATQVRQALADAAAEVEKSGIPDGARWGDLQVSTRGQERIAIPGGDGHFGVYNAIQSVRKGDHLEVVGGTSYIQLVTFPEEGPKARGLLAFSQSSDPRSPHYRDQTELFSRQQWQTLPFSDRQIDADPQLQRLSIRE
Chain of Protein Tat (P04608 whole entry): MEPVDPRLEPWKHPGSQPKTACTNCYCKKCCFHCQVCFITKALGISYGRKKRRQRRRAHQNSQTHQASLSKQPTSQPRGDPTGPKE

O=C(Nc1cccc(C(F)(F)F)c1)Nn1cnnc1
IC50 (Procathepsin L): > 59.6 µM (not active) | IC50 (Aspartyl aminopeptidase): 2.32 µM (active)

CCC1(c2ccc(F)cc2)NC(=O)N(CC(=O)Nc2ccc(-c3nc4ccc(C)cc4s3)cc2)C1=O (centres undefined)
AC50 (INS1): 8.98 µM (active) | Absolute IC50 (XBP1) (X-box-binding protein 1): 10 µM | EC50 [1]: 7.37 µM (active) | CC50 [2]: 15.5 µM (active) | EC50 [3]: 12.3 µM (active)

O=C(OCc1ccc(Cl)c(Cl)c1)c1ccccn1
IC50 (cells [4]): 16.9 µM (active) | AC50 [5]: 29.3 µM (active)

CCCCCc1c(C)nc(Nc2ccccc2)nc1O
Absolute IC50 (XBP1) (X-box-binding protein 1): 10 µM

Cn1c(SCC(=O)Nc2sccc2C#N)nnc1-c1ccccc1
IC50 (Estrogen receptor): 17.1 µM (active)

O=C(Nc1ccc(Cl)c(Cl)c1)Nn1cnnc1
IC50 (Procathepsin L): > 59.6 µM (not active) | IC50 (Aspartyl aminopeptidase): 0.837 µM (active)

CC(C)C[C@H](NC(=O)c1[nH]cnc1C(=O)N1CCN(C(=O)OC(C)(C)C)CC1)C(=O)OC(C)(C)C
IC50 [6]: 34.8 µM (active) | IC50 (cells [7]): 1.43 µM (active) | CC50 [2]: 13.3 µM (active)

Cc1onc(-c2c(F)cccc2Cl)c1C(=O)OCC(=O)NCc1ccco1
IC50 (Estrogen receptor): 38.6 µM (not active)

CCCSC1=N/C(=C\C=C\c2ccco2)C(=O)S1
IC50 [8]: 3.97 µM (active) | IC50 (Estrogen receptor beta [9]): 9.71 µM (active) | CC50 [10]: > 40 µM (active) | IC50 (Estrogen receptor beta [11]): > 50 µM (not active) | IC50 (Ephrin type-A receptor 4): 11.9 µM (active) | IC50 (Protein Tat): 3.05 µM (inconclusive)

COc1ccc(C(=O)Nc2nc3ccccc3n2Cc2ccc(Cl)cc2)cc1
IC50 (HEK293): > 20 µM (inactive) | IC50 [12]: > 20 µM (inactive) | IC50 [13]: > 20 µM (inactive) | IC50 (Tumor necrosis factor): > 20 µM (inactive)

CCOC1=CC(=O)OC(c2ccccc2)C1 (centres undefined)
AC50 [5]: 3.54 µM (active)

Nc1nc2ccccc2n1C(=O)Cc1ccccc1
IC50 (HEK293): > 20 µM (inactive) | IC50 [12]: > 20 µM (inactive) | IC50 [13]: > 20 µM (inactive) | IC50 (Tumor necrosis factor): > 20 µM (inactive)

c1coc(-c2nc3ccccc3nc2-c2ccco2)c1
IC50 [8]: < 0.4 µM (active) | EC50 [14]: 12 µM (active) | IC50 [15]: 12.4 µM (active) | IC50 (Coagulation factor XII): > 50 µM (inactive) | IC50 (Estrogen receptor beta [11]): < 0.023 µM (not active) | IC50 (Genome polyprotein): > 100 µM (active) | EC50 [16]: 21.6 µM (active)
